Measured values from patent publication US20240041036A1, “BIO PESTICIDAL COMPOSITION CONTAINS NOVEL NONANOATE ESTERS OF SUGARS AND SUGAR ALCOHOLS TO CONTROL LEPIDOPTERA, HEMIPTERA AND THYSANOPTERA INSECTS” (FERTIS INDIA PVT. LTD., priority 2020, published 2024).

How the values were obtained:
Assay in all cases: Field experiment on cotton sucking insects, population count
Format in all cases: in vivo
[1] = test system: whitefly (Bemisia tabaci); conditions: 0.5 g/L
Procedure: (§1) A field experiment was conducted with EN2 formulation on cotton sucking insects viz. thrips (Scirtothrips dorsails), aphids (Aphis gossypii), jassids (Amrascabi guttula) and whitefly (Bemisia tabaci), as shown in FIG. 25. Two benchmark insecticides were used as control viz. Thiamethoxam (a broad spectrum insecticide) and Acetamiprid (effective to cotton sucking pest). Three doses of EN 2 formulation (for 1 kg formulation EN 800 g+Arginine 80 g+Silwet20 g+Tergitol 20 g+Water 150 g) was used for this study viz. […] Initially the population of the pests (pre count) was assessed before spraying. […] The number of major sucking pests (2 leaves from top, one from middle and 2 leaves from bottom) in 5 tagged plants/treatment was recorded at 24 h before the spray and after 24 h, 3rd, 6th and 9th day after spray. The data was pooled and average population calculated.

[2] = test system: thrips (Scirtothrips dorsails); conditions: for Thrips population count after spray: 0.5 g/L; for Reduction of thrips population: after 24 h, dose not stated
Procedure: as §1

[3] = test system: jassids (Amrascabi guttula); conditions: for Jassids population count after spray: 0.5 g/L
Procedure: as §1, with “pest).” for “pest). Three doses of EN 2 formulation (for 1 kg formulation EN 800 g+Arginine 80 g+Silwet20 g+Tergitol 20 g+Water 150 g) was used for this study viz.”

## C/C(=N\C#N)N(C)Cc1ccc(Cl)nc1 [Acetamiprid]
[1]; 3rd day after spray
  Whitefly population count after spray: 1.66
[1]; 6th day after spray
  Whitefly population count after spray: 2.4
[1]; 9th day after spray
  Whitefly population count after spray: 2.13
[1]; 24 h after spray
  Whitefly population count after spray: 8.66
[2]; 3rd day after spray
  Thrips population count after spray: 4.06
[2]; 6th day after spray
  Thrips population count after spray: 5.66
[2]; 9th day after spray
  Thrips population count after spray: 3.6
[2]; 24 h after spray
  Thrips population count after spray: 22.7
[2]
  Reduction of thrips population: 13.7%
[3]; 3rd day after spray
  Jassids population count after spray: 3.56
[3]; 6th day after spray
  Jassids population count after spray: 2.66
[3]; 9th day after spray
  Jassids population count after spray: 3.36
[3]; 24 hrs after spray
  Jassids population count after spray: 14

## CN1COCN(Cc2cnc(Cl)s2)/C1=N\[N+](=O)[O-] [Thiamethoxam]
[1]; 3rd day after spray
  Whitefly population count after spray: 1.86
[1]; 6th day after spray
  Whitefly population count after spray: 2.46
[1]; 9th day after spray
  Whitefly population count after spray: 1.7
[1]; 24 h after spray
  Whitefly population count after spray: 7
[2]; 3rd day after spray
  Thrips population count after spray: 3.46
[2]; 6th day after spray
  Thrips population count after spray: 5.33
[2]; 9th day after spray
  Thrips population count after spray: 3.76
[2]; 24 h after spray
  Thrips population count after spray: 23.7
[2]
  Reduction of thrips population: 15.9%
[3]; 3rd day after spray
  Jassids population count after spray: 3.26
[3]; 6th day after spray
  Jassids population count after spray: 2
[3]; 9th day after spray
  Jassids population count after spray: 2.73
[3]; 24 hrs after spray
  Jassids population count after spray: 13.66
[3]; 3rd day after the spray
  Reduction of Jassids population: 11.8%
[3]; 9th day
  Reduction of Jassid population: 40.6%
